Experimental data as given in PubChem BioAssay AID1963869 (Molecular Pharmacology Branch, DTP, NCI, 2024).

System: KRAS patient-derived spheroids with HUVEC/MSC, viability
Assay: Anticancer human tumor 323965-272-R-J2-PDC patient-derived pancreatic carcinoma cell line growth inhibition [KRAS2]
Details: for IC50: curve of first compound; for viability, T/C: stronger effect = lower value
Summary of the method: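 Combination screen of spheroid viability in tumor-cell co-cultures with endothelial (HUVEC) and mesenchymal stem cell stroma. Each agent was tested in half-log dilutions, topping at clinical Cmax or at 10 microM without a known Cmax.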

[1] = second compound 0.1 µM, first compound 0.0316 µM
[2] = second compound 0.1 µM, first compound 0.1 µM
[3] = second compound 0.1 µM, first compound 0.316 µM
[4] = second compound 0.1 µM, first compound 1 µM
[5] = second compound 0.1 µM, first compound 3.16 µM
[6] = second compound 0.316 µM, first compound 0.0316 µM
[7] = second compound 0.316 µM, first compound 0.1 µM
[8] = second compound 0.316 µM, first compound 0.316 µM
[9] = second compound 0.316 µM, first compound 1 µM
[10] = second compound 0.316 µM, first compound 3.16 µM
[11] = second compound 1 µM, first compound 0.0316 µM
[12] = second compound 1 µM, first compound 0.1 µM
[13] = second compound 1 µM, first compound 0.316 µM
[14] = second compound 1 µM, first compound 1 µM
[15] = second compound 1 µM, first compound 3.16 µM
[16] = second compound 3.16 µM, first compound 0.0316 µM
[17] = second compound 3.16 µM, first compound 0.1 µM
[18] = second compound 3.16 µM, first compound 0.316 µM
[19] = second compound 3.16 µM, first compound 1 µM
[20] = second compound 3.16 µM, first compound 3.16 µM
[21] = second compound 10 µM, first compound 0.0316 µM
[22] = second compound 10 µM, first compound 0.1 µM
[23] = second compound 10 µM, first compound 0.316 µM
[24] = second compound 10 µM, first compound 1 µM
[25] = second compound 10 µM, first compound 3.16 µM
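Further: spheroids exposed to agents for 7 days.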
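Wherever viability, T/C is given: 100% = DMSO vehicle control viability.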

Compound CC(C)NCC(C(=O)N1CCN(c2ncnc3c2C(C)CC3O)CC1)c1ccc(Cl)cc1 (stereo not given) + CNCc1ccccc1-c1csc(C(C)Nc2nc(C)nc3cc(OC)c(OC)cc23)c1 has an IC50 (second compound 0.1 µM) of 1570 nM, an IC50 (second compound 0.316 µM) of 1060 nM and an IC50 (second compound 1 µM) of 1330 nM. For the same compound, the IC50 (second compound 3.16 µM) was 532 nM, the IC50 (second compound 10 µM) was < 31.6 nM and the viability, T/C [1] was 90.9%. For the same compound, the viability, T/C [2] was 85.4%, the viability, T/C [3] was 70.6% and the viability, T/C [4] was 55.8%. For the same compound, the viability, T/C [5] was 41.7%, the viability, T/C (second compound 0.1 µM, first compound 10 µM) was 36% and the viability, T/C [6] was 94.2%. For the same compound, the viability, T/C [7] was 85.2%, the viability, T/C [8] was 72.9% and the viability, T/C [9] was 48.1%. It also gave a viability, T/C [10] of 41.4%, a viability, T/C (second compound 0.316 µM, first compound 10 µM) of 33% and a viability, T/C [11] of 94.9%. It also gave a viability, T/C [12] of 91.8%, a viability, T/C [13] of 79.9% and a viability, T/C [14] of 54.4%. The viability, T/C [15] was 36.7%, the viability, T/C (second compound 1 µM, first compound 10 µM) was 32.9% and the viability, T/C [16] was 88.3%. For the same compound, the viability, T/C [17] was 73.2%, the viability, T/C [18] was 58.5% and the viability, T/C [19] was 43%. The viability, T/C [20] was 21.5%, the viability, T/C (second compound 3.16 µM, first compound 10 µM) was 18% and the viability, T/C [21] was 0.27%. It also gave a viability, T/C [22] of 0.28%, a viability, T/C [23] of 0.23% and a viability, T/C [24] of 0.59%. The viability, T/C [25] was 0.71% and the viability, T/C (second compound 10 µM, first compound 10 µM) was 0.19%.
Work on CC1COCCN1c1cc(-c2ccnn2C)c2ccnc(-c3ccn[nH]3)c2n1 (stereo not given) + CNCc1ccccc1-c1csc(C(C)Nc2nc(C)nc3cc(OC)c(OC)cc23)c1 yielded an IC50 (second compound 0.1 µM) of 20.7 nM, an IC50 (second compound 0.316 µM) of 21.4 nM and an IC50 (second compound 1 µM) of 22.3 nM. For the same compound, the IC50 (second compound 3.16 µM) was 12.8 nM, the IC50 (second compound 10 µM) was < 10 nM and the viability, T/C (second compound 0.1 µM, first compound 0.01 µM) was 71.4%. For the same compound, the viability, T/C [1] was 37.6%, the viability, T/C [2] was 22.5% and the viability, T/C [3] was 20.1%. It also gave a viability, T/C [4] of 18.2%, a viability, T/C [5] of 17.9% and a viability, T/C (second compound 0.316 µM, first compound 0.01 µM) of 77.8%. It also gave a viability, T/C [6] of 35.8%, a viability, T/C [7] of 20.4% and a viability, T/C [8] of 19%. The viability, T/C [9] was 16.1%, the viability, T/C [10] was 17.1% and the viability, T/C (second compound 1 µM, first compound 0.01 µM) was 85.8%. For the same compound, the viability, T/C [11] was 34.3%, the viability, T/C [12] was 17.9% and the viability, T/C [13] was 17.2%. For the same compound, the viability, T/C [14] was 14.9%, the viability, T/C [15] was 16.1% and the viability, T/C (second compound 3.16 µM, first compound 0.01 µM) was 57.1%. It also gave a viability, T/C [16] of 24.2%, a viability, T/C [17] of 5.14% and a viability, T/C [18] of 4.3%. The viability, T/C [19] was 7.85%, the viability, T/C [20] was 8.8% and the viability, T/C (second compound 10 µM, first compound 0.01 µM) was 0.18%. The viability, T/C [21] was 0.13%, the viability, T/C [22] was 0.13% and the viability, T/C [23] was 0.12%. The viability, T/C [24] was 0.25% and the viability, T/C [25] was 0.19%.
